The target in series [1] is T1, c-Kit(V654A) (Homo sapiens, UniProt P10721, V654A).
T1 construct: recombinant human c-Kit, amino acids 544-end containing the V654A mutation; GST (N)
In words: c-Kit(V654A) assay (33P-ATP filter binding kinase assay). It counts as biochemical. Particulars: recombinant human c-Kit aa 544-end V654A, ATP 200 μM. An outline of the steps:
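Radiometric filter-binding read-out: substrate 33P incorporation counted by scintillation after P30 filtermat washes in 75 mM phosphoric acid and methanol. Enzyme: N-GST recombinant human c-Kit aa 544-end carrying V654A.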

For series [2], the target named is T2, GIST430/654 cell line expressing mutated constitutively active cKIT receptor tyrosine kinase (Δ560-576 deletion and V654A point mutation) (Homo sapiens, UniProt P10721, DEL560-576/V654A).
T2 construct: endogenous in cells; host or cells: GIST430/654 cells
T2 sequence (P10721 with tags, fused parts or gaps DEL560-576/V654A): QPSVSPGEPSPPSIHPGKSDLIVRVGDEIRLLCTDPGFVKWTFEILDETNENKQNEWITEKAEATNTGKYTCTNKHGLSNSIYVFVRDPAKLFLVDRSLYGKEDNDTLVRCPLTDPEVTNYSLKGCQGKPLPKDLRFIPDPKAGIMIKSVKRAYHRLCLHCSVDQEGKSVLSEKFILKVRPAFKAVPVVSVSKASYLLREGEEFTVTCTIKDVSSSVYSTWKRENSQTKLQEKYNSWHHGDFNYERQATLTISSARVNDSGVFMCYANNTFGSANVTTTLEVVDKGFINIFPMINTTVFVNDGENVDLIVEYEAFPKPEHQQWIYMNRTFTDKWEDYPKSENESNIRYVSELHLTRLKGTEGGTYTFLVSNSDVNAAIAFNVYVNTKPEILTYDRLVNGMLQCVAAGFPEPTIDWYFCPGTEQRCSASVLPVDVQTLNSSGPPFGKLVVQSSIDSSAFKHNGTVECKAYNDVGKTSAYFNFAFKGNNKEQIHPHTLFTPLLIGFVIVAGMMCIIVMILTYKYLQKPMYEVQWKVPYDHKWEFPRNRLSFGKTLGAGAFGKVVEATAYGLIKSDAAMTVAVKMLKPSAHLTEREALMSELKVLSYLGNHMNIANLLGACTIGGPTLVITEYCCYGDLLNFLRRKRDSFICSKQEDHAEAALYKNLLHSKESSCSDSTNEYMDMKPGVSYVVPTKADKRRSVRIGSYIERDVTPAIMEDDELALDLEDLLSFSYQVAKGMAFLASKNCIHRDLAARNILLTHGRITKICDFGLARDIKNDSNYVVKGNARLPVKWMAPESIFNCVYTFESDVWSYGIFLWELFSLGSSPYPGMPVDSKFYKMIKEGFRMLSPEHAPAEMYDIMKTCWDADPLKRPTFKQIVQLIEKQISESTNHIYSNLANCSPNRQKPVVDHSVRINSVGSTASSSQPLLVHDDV
Description: Cellular cKIT autophosphorylation (phospho-Y307-cKIT, Luminex bead assay) in GIST430/654 cells. It counts as cell-based. To be noted: compounds 45 min, read-out: GIST 430/654 IC50. An outline of the steps:
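Phospho-Y307 cKIT in lysates was measured on a Luminex bead assay, with total-cKIT capture overnight at 4 °C and phosphospecific plus PE secondary detection. Cells had 45 min exposure to a compound dilution series the day after plating: GIST430 (Δ560-576) or GIST430/654 (Δ560-576/V654A, grown with 100 nM imatinib). IC50 values are relative to 0.3% DMSO-treated cells.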

Series [3] in a line: Determination of Efflux-Ratio (ER) in Caco-2 cells. Particulars: human, Caco-2, pH 7.4. On the technique in general: Caco-2 cells form a polarised layer with tight junctions and transporters.

The structures appear in SMILES notation. Where only a bound is given, the exact number is not on record here.

T1 sequence (P10721 544-976 V654A): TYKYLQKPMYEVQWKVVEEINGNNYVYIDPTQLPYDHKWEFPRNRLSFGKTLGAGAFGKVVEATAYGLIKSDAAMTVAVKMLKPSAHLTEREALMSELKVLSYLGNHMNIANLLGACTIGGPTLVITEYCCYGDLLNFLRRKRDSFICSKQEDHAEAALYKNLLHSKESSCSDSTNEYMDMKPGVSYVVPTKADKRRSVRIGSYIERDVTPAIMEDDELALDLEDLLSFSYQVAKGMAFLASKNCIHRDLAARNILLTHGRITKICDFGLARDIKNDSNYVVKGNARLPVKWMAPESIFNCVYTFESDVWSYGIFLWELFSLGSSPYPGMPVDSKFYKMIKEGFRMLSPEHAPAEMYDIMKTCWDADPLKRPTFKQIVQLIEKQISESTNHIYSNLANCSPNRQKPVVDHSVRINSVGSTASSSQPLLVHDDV

Regarding `Cn1cc(-c2ccc(CNc3cc(-c4cnc5cc(N6CCC(O)C6)ccn45)ncn3)cc2)cn1` (stereo not drawn) [A245, 1-(3-{6-[4-(1-methyl-1H-pyrazol-4-yl)-benzylamino]-pyrimidin-4-yl}-imidazo[1,2-a]pyridin-7-yl)-pyrrolidin-3-ol], the results for the IC50 in series [1] and in series [2] were 13 nM and 84 nM, respectively. In addition, the efflux ratio at 2 h, 1 μM in series [3] is above 50.
The corresponding values for `Cn1cc(-c2ccc(CNc3cc(-c4cnc5cc(OCCN6CCN(C7COC7)CC6)ccn45)ncn3)cc2)cn1` [A65, [4-(1-methyl-1H-pyrazol-4-yl)-benzyl]-(6-{7-[2-(4-oxetan-3-yl-piperazin-1-yl)-ethoxy]-imidazo[1,2-a]pyridin-3-yl}-pyrimidin-4-yl)-amine] are 11 nM, 46 nM and below 15.
The corresponding values for `Cn1ncc(-c2ccc(CNc3cc(-c4cnc5cc(OCC6CCN(CC#N)CC6)ccn45)ncn3)cc2)n1` [A189, [4-(3-{6-[4-(2-methyl-2H-[1,2,3]triazol-4-yl)-benzylamino]-pyrimidin-4-yl}-imidazo[1,2-a]pyridin-7-yloxymethyl)-piperidin-1-yl]-acetonitrile] are 9.8 nM, 160 nM and below 15.
The corresponding values for `CN1CCN(CCOc2ccn3c(-c4cc(NCc5ccc(-c6cnn(C)c6)cc5)ncn4)cnc3c2)C(=O)C1` [A141, 4-methyl-1-[2-({3-[6-({[4-(1-methyl-1H-pyrazol-4-yl)phenyl]methyl}amino)pyrimidin-4-yl]imidazo[1,2-a]pyridin-7-yl}oxy)ethyl]piperazin-2-one] are 15 nM, 85 nM and above 50.
As to `Cn1cc(-c2ccc(CNc3cc(-c4cnc5cc(OCCN6CC[S+]([O-])CC6)ccn45)ncn3)cc2)cn1` [A194, [4-(1-methyl-1H-pyrazol-4-yl)-benzyl]-(6-{7-[2-(1-oxo-1|4-thiomorpholin-4-yl)-ethoxy]-imidazo[1,2-a]pyridin-3-yl}-pyrimidin-4-yl)-amine], the IC50 came to 6.1 nM in series [1] and 92 nM in series [2]. Also, the efflux ratio at 2 h, 1 μM in series [3] was above 50.
The corresponding values for `Cn1cc(-c2ccc(CNc3cc(-c4cnc5cc(OCC(C)(C)N)ccn45)ncn3)cc2)cn1` [A104, {6-[7-(2-amino-2-methyl-propoxy)-imidazo[1,2-a]pyridin-3-yl]-pyrimidin-4-yl}-[4-(1-methyl-1H-pyrazol-4-yl)-benzyl]-amine] are 7 nM, 170 nM and 15 to 50.
The corresponding values for `COc1ccn2c(-c3cc(NCc4ccc(-c5cnn(C)c5)s4)ncn3)cnc2c1` [A36, 6-{7-methoxyimidazo[1,2-a]pyridin-3-yl}-N-{[5-(1-methyl-1H-pyrazol-4-yl)thiophen-2-yl]methyl}pyrimidin-4-amine] are 4.2 nM, 140 nM and below 15.
The corresponding values for `Cn1cc(-c2ccc(CNc3cc(-c4cnc5cc(OCCCN6CCN(C7COC7)CC6)ccn45)ncn3)cc2)cn1` [A184, [4-(1-methyl-1H-pyrazol-4-yl)-benzyl]-(6-{7-[3-(4-oxetan-3-yl-piperazin-1-yl)-propoxy]-imidazo[1,2-a]pyridin-3-yl}-pyrimidin-4-yl)-amine] are 20 nM, 76 nM and below 15.
For `Cn1cc(-c2ccc(CNc3cc(-c4cnc5cc(OCCn6cccn6)ccn45)ncn3)cc2)cn1` [A255, N-{[4-(1-methyl-1H-pyrazol-4-yl)phenyl]methyl}-6-{7-[2-(1H-pyrazol-1-yl)ethoxy]imidazo[1,2-a]pyridin-3-yl}pyrimidin-4-amine], the figures for the IC50 in series [1] and in series [2] were 15 nM and 100 nM, respectively. The efflux ratio at 2 h, 1 μM in series [3] was below 15.
The corresponding values for `COc1ccn2c(-c3cc(NCc4ccc(-c5cnn(C)n5)cc4)ncn3)cnc2c1` [A32, [6-(7-methoxy-imidazo[1,2-a]pyridin-3-yl)-pyrimidin-4-yl]-[4-(2-methyl-2H-[1,2,3]triazol-4-yl)-benzyl]-amine] are 4.4 nM, 78 nM and below 15.
For `CN1CC(COc2ccn3c(-c4cc(NCc5ccc(-c6cnn(C)c6)cc5)ncn4)cnc3c2)C1` [A144, N-{[4-(1-methyl-1H-pyrazol-4-yl)phenyl]methyl}-6-{7-[(1-methylazetidin-3-yl)methoxy]imidazo[1,2-a]pyridin-3-yl}pyrimidin-4-amine], the results for the IC50 in series [1] and in series [2] were 5.1 nM and 61 nM, respectively. In addition, the efflux ratio at 2 h, 1 μM in series [3] was above 50.
The corresponding values for `COCCOc1ccn2c(-c3cc(NCc4ccc(-c5cnn(C)n5)cc4)ncn3)cnc2c1` [A71, {6-[7-(2-methoxy-ethoxy)-imidazo[1,2-a]pyridin-3-yl]-pyrimidin-4-yl}-[4-(2-methyl-2H-[1,2,3]triazol-4-yl)-benzyl]-amine] are 4.6 nM, 45 nM and below 15.
The corresponding values for `Cn1cc(-c2ccc(CNc3cc(-c4cnc5cc(OCCN6CCn7cnnc7C6)ccn45)ncn3)cc2)cn1` [A203, (6-{7-[2-(5,6-dihydro-8H-[1,2,4]triazolo[4,3-a]pyrazin-7-yl)-ethoxy]-imidazo[1,2-a]pyridin-3-yl}-pyrimidin-4-yl)-[4-(1-methyl-1H-pyrazol-4-yl)-benzyl]-amine] are 9.8 nM, 420 nM and above 50.
`CN1CCC(COc2ccn3c(-c4cc(NCc5ccc(-n6ccnn6)cc5)ncn4)cnc3c2)CC1` [A80, {6-[7-(1-methyl-piperidin-4-ylmethoxy)-imidazo[1,2-a]pyridin-3-yl]-pyrimidin-4-yl}-(4-[1,2,3]triazol-1-yl-benzyl)-amine]: the IC50 in series [1] came out at 3.4 nM; in series [2], 38 nM. In series [3], the efflux ratio at 2 h, 1 μM is above 50.
The corresponding values for `CN(CCOc1ccn2c(-c3cc(NCc4ccc(-c5cnn(C)c5)cc4)ncn3)cnc2c1)CC(F)(F)F` [A208, [4-(1-methyl-1H-pyrazol-4-yl)-benzyl]-[6-(7-{2-[methyl-(2,2,2-trifluoro-ethyl)-amino]-ethoxy}-imidazo[1,2-a]pyridin-3-yl)-pyrimidin-4-yl]-amine] are 38 nM, 230 nM and below 15.
The corresponding values for `Cn1cc(-c2ccc(CNc3cc(-c4cnc5cc(OCCN6CC(F)C6)ccn45)ncn3)cc2)cn1` [A140, 6-{7-[2-(3-fluoroazetidin-1-yl)ethoxy]imidazo[1,2-a]pyridin-3-yl}-N-{[4-(1-methyl-1H-pyrazol-4-yl)phenyl]methyl}pyrimidin-4-amine] are 11 nM, 26 nM and below 15.
In the case of `CN1CCN(CCOc2ccn3c(-c4cc(NCc5ccc(-n6ccnn6)cc5)ncn4)cnc3c2)CC1` [A67, (6-{7-[2-(4-methyl-piperazin-1-yl)-ethoxy]-imidazo[1,2-a]pyridin-3-yl}-pyrimidin-4-yl)-(4-[1,2,3]triazol-1-yl-benzyl)-amine], the figures for the IC50 in series [1] and in series [2] were 4.8 nM and 65 nM, respectively. Further, the efflux ratio at 2 h, 1 μM in series [3] was above 50.
The corresponding values for `Cn1cc(-c2ccc(CNc3cc(-c4cnc5cc(OCCN6CC7CC6C[S+]7[O-])ccn45)ncn3)cc2)cn1` (stereo not drawn) [A199, [4-(1-methyl-1H-pyrazol-4-yl)-benzyl]-(6-{7-[2-(2-oxo-2|4-thia-5-aza-bicyclo[2.2.1]hept-5-yl)-ethoxy]-imidazo[1,2-a]pyridin-3-yl}-pyrimidin-4-yl)-amine] are 9.7 nM, 100 nM and above 50.
The corresponding values for `COc1ccn2c(-c3cc(NCc4ccc(-c5cnn(CC6CC6)c5)cc4)ncn3)cnc2c1` [A21, [4-(1-cyclopropylmethyl-1H-pyrazol-4-yl)-benzyl]-[6-(7-methoxy-imidazo[1,2-a]pyridin-3-yl)-pyrimidin-4-yl]-amine] are 4.8 nM, 58 nM and below 15.
The corresponding values for `Cn1cc(-c2ccc(CNc3cc(-c4cnc5cc(N6CC7(COC7)C6)ccn45)ncn3)cc2)cn1` [A246, [4-(1-methyl-1H-pyrazol-4-yl)-benzyl]-{6-[7-(2-oxa-6-aza-spiro[3.3]hept-6-yl)-imidazo[1,2-a]pyridin-3-yl]-pyrimidin-4-yl}-amine] are 8 nM, 38 nM and below 15.
Take `Cn1cc(-c2ccc(CNc3cc(-c4cnc5cc(OCCOCCO)ccn45)ncn3)cc2)cn1` [A234, 2-[2-(3-{6-[4-(1-methyl-1H-pyrazol-4-yl)-benzylamino]-pyrimidin-4-yl}-imidazo[1,2-a]pyridin-7-yloxy)-ethoxy]-ethanol]: the IC50 in series [1] was found to be 8.5 nM; in series [2], 70 nM. Moreover, the efflux ratio at 2 h, 1 μM in series [3] is below 15.
As to `CN1CC2(CN(CCOc3ccn4c(-c5cc(NCc6ccc(-c7cnn(C)c7)cc6)ncn5)cnc4c3)C2)OC1=O` [A248, 7-methyl-2-[2-(3-{6-[4-(1-methyl-1H-pyrazol-4-yl)-benzylamino]-pyrimidin-4-yl}-imidazo[1,2-a]pyridin-7-yloxy)-ethyl]-5-oxa-2,7-diaza-spiro[3.4]octan-6-one], the IC50 is 21 nM in series [1] and 160 nM in series [2]. For the same compound, in series [3], the efflux ratio at 2 h, 1 μM was above 50.

As a reminder, the efflux ratio is the permeability from basolateral to apical divided by that in the opposite direction, in the common usage.

(Values after patent publication US12655142B2 (Merck Patent GmbH, priority 2019, dated 2026).)
